Values quoted from earlier work in patent publication US8229872B2, “Modeling and control for highly variable and nonlinear systems” (priority 2007, dated 2012).

System: receptors of the neuromuscular junction
Conditions: isolated cat anterior tibialis and sartorius muscles; ref [18]

For `COc1cc2c3cc1Oc1cc(ccc1O)C[C@@H]1c4c(cc(OC)c(O)c4Oc4ccc(cc4)C[C@@H]3N(C)CC2)CC[N+]1(C)C` [tubocurarine], the “receptors that had to be blocked by the antagonist before block was noticeable” value is given as 76±5% and the “receptors that had to be blocked for near complete blockade” value is given as 92±16%.
